Measured values from patent US8067424B2, “Selective inhibitors for cyclin-dependent kinases” (Emory University, priority 2007, dated 2011).
Where two headings read alike, the source gives them in different places.

Experiments:
[1] = target: NEK7 (Homo sapiens, UniProt Q8TDX7); experiment: Kinase screen: NEK7 assay; assay type: biochemical; conditions: read-out: Mean Remaining Enzyme Activity (%)
Procedure: (§1) Generally, the same procedure was used for all assays. Since the total assay volume was 25.5 microliters, 0.5 microliters of inhibitors at 51× assay concentration were added to the plates before any other addition.
(§2) The basic procedure was to add 0.5 microliters inhibitor/control in DMSO to plate. Fifteen microliters of enzyme/substrate/buffer mix were added and incubated for 5 min. Ten microliters MgATP at the relevant concentration were added and incubated for 30 min. The assay was stopped by adding 5 microliters of 3% orthophosphoric acid. The assay was transferred to a p81 filter plate and read in a scintillation counter of 30 sec/well. Note that this assay procedure was not followed for MKK1, which instead involved a two-step assay, and PKC alpha, which required the addition of lipid vesicles.
(500-1000 cpm/pmole) and incubated for 30 min at room temperature. Assays were stopped by addition of 5 μl of 0.5 M (3%) orthophosphoric acid and then harvested onto P81 Unifilter plates with a wash buffer of 50 mM orthophosphoric acid.

[2] = target: JNK3 (Homo sapiens, UniProt P53779); experiment: Kinase screen: JNK3 alpha 1 assay; assay type: biochemical; conditions: read-out: Mean Remaining Enzyme Activity (%)
Procedure: as §1, §2
JNK3 alpha 1 assay: JNK3 alpha 1(5-20 mU diluted in 50 mM Tris (pH 7.5), 0.1 mM EGTA, 1 mg/ml BSA, 0.1% b-mercaptoethanol) was assayed against ATF2 (activating transcription factor in a final volume of 25.5 μl in 50 mM Tris pH 7.5, 0.1 mM EGTA, 0.1% b-Mercaptoethanol, ATF2 (3 μM), 10 mM magnesium acetate and 0.05 mM [33P-g-ATP] (500-1000 cpm/pmole) and incubated for 30 min at room temperature. Assays were stopped by addition of 5 μl of 0.5 M (3%) orthophosphoric acid and then harvested onto P81 Unifilter plates with a wash buffer of 50 mM orthophosphoric acid.

[3] = test system: TK-10
[4] = test system: SW-620; experiment: cells; conditions: Homo sapiens
[5] = test system: HT29
[6] = test system: A498; experiment: cells; conditions: Homo sapiens
[7] = test system: CCRF-CEM; experiment: cells; conditions: Homo sapiens
[8] = test system: SK-OV-3
[9] = test system: HCT-116; experiment: cells; conditions: Homo sapiens
[10] = test system: OVCAR-8
[11] = test system: K-562; experiment: cells; conditions: Homo sapiens
[12] = test system: UACC-62; experiment: cells; conditions: Homo sapiens
[13] = test system: MDA-MB-231/ATCC; conditions: for Mean Optical Densities / Percent Growth: MDA-MB-231/ATCC
[14] = test system: LOX IMVI; conditions: for Mean Optical Densities / Percent Growth: LOX IMVI
[15] = test system: MDA-MB-435; experiment: cells; conditions: Homo sapiens
[16] = test system: T-47D; conditions: for Mean Optical Densities / Percent Growth: T-47D
[17] = test system: EKVX; experiment: cells; conditions: Homo sapiens
[18] = TK-10, log10 concentration −4.0
[19] = TK-10, log10 concentration −5.0
[20] = TK-10, log10 concentration −6.0
[21] = TK-10, log10 concentration −7.0
[22] = TK-10, log10 concentration −8.0
[23] = SK-OV-3, log10 concentration −4.0
[24] = SK-OV-3, log10 concentration −5.0
[25] = SK-OV-3, log10 concentration −6.0
[26] = SK-OV-3, log10 concentration −7.0
[27] = SK-OV-3, log10 concentration −8.0
[28] = OVCAR-8, log10 concentration −4.0
[29] = OVCAR-8, log10 concentration −5.0
[30] = OVCAR-8, log10 concentration −6.0
[31] = OVCAR-8, log10 concentration −7.0
[32] = OVCAR-8, log10 concentration −8.0

Chain of NEK7 (Q8TDX7 whole entry, species assumed): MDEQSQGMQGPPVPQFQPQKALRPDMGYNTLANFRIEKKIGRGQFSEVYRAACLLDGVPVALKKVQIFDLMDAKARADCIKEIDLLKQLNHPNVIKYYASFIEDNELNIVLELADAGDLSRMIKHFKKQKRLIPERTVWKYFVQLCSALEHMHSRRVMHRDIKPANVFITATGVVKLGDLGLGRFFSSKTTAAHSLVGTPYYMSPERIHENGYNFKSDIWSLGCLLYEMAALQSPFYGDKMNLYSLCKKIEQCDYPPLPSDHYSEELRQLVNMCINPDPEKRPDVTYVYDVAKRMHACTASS
Chain of JNK3 (P53779 1-422 isoform P53779-2, species assumed): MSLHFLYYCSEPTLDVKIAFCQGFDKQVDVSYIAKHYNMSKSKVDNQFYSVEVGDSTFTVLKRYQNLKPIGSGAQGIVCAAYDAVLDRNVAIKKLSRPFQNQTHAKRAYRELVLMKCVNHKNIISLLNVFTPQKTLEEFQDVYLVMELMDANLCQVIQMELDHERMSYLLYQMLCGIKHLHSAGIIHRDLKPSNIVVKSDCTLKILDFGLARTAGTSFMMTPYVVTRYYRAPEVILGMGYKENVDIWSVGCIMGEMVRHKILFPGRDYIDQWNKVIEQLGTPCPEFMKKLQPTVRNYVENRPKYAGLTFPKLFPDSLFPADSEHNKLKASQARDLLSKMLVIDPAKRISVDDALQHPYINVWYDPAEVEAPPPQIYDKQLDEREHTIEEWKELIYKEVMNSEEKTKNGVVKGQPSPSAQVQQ

Molecule CC(C)c1cnn2c(NCc3ccccc3)cc(NCCCCCCCN)nc12 [BS-181] has a remaining activity at 10 µM [1] of 97% and a remaining activity at 10 µM [2] of 128%.

CC(C)c1cnn2c(NCc3ccccc3)cc(N[C@@H](CO)[C@H](O)CO)nc12 [ICEC0318, (3S)-3-(7-(Benzylamino)-3-isopropylpyrazolo[1,5-a]pyrimidin-5-ylamino)butane-1,2,4-triol] was tested, and the TGI ([3]; TK-10 (Renal Cancer)) was over 1.00E−4, the “Mean Optical Densities” value [3, 18] was 0.610 and the “Percent Growth” value [3, 18] was 18%. For the same molecule, the “Mean Optical Densities” value [3, 19] was 0.593, the “Percent Growth” value [3, 19] was 15% and the “Mean Optical Densities” value [3, 20] was 0.572. The “Percent Growth” value [3, 20] was 12%, the “Mean Optical Densities” value [3, 21] was 1.192 and the “Percent Growth” value [3, 21] was 101%. The “Mean Optical Densities” value [3, 22] was 1.202, the “Percent Growth” value [3, 22] was 103% and the GI50 ([4]; SW-620) was 285 nM. The CC50 ([4]; SW-620, read-out: LC50) was over 100000 nM, the TGI ([5]; HT29 (Colon Cancer)) was 3.66E−5 and the “Mean Optical Densities” value ([5]; HT29, log10 concentration −4.0) was 0.190. For the same molecule, the “Percent Growth” value ([5]; HT29, log10 concentration −4.0) was −2%, the “Mean Optical Densities” value ([5]; HT29, log10 concentration −5.0) was 0.216 and the “Percent Growth” value ([5]; HT29, log10 concentration −5.0) was 2%. The “Mean Optical Densities” value ([5]; HT29, log10 concentration −6.0) was 0.247, the “Percent Growth” value ([5]; HT29, log10 concentration −6.0) was 5% and the “Mean Optical Densities” value ([5]; HT29, log10 concentration −7.0) was 1.345. For the same molecule, the “Percent Growth” value ([5]; HT29, log10 concentration −7.0) was 100%, the “Mean Optical Densities” value ([5]; HT29, log10 concentration −8.0) was 1.394 and the “Percent Growth” value ([5]; HT29, log10 concentration −8.0) was 105%. It also gave a GI50 ([6]; A498) of 235 nM, a CC50 ([6]; A498, read-out: LC50) of 993 nM and a GI50 [7] of 342 nM. The TGI ([8]; SK-OV-3 (Ovarian Cancer)) was over 1.00E−4, the “Mean Optical Densities” value [8, 23] was 0.799 and the “Percent Growth” value [8, 23] was 9%. For the same molecule, the “Mean Optical Densities” value [8, 24] was 0.860, the “Percent Growth” value [8, 24] was 17% and the “Mean Optical Densities” value [8, 25] was 0.903. The “Percent Growth” value [8, 25] was 23%, the “Mean Optical Densities” value [8, 26] was 1.701 and the “Percent Growth” value [8, 26] was 132%. The “Mean Optical Densities” value [8, 27] was 1.504, the “Percent Growth” value [8, 27] was 105% and the GI50 ([9]; HCT-116) was 161 nM. The CC50 ([9]; HCT-116, read-out: LC50) was over 100000 nM, the TGI ([10]; OVCAR-8 (Ovarian Cancer)) was over 1.00E−4 and the “Mean Optical Densities” value [10, 28] was 0.723. The “Percent Growth” value [10, 28] was 10%, the “Mean Optical Densities” value [10, 29] was 0.810 and the “Percent Growth” value [10, 29] was 16%. The “Mean Optical Densities” value [10, 30] was 0.803, the “Percent Growth” value [10, 30] was 15% and the “Mean Optical Densities” value [10, 31] was 1.975. For the same molecule, the “Percent Growth” value [10, 31] was 89%, the “Mean Optical Densities” value [10, 32] was 2.165 and the “Percent Growth” value [10, 32] was 101%. For the same molecule, the GI50 ([11]; K562) was 288 nM, the CC50 ([11]; K562, read-out: LC50) was over 100000 nM and the GI50 ([12]; UACC-62) was 155 nM. The CC50 ([12]; UACC-62, read-out: LC50) was 644 nM, the TGI ([13]; MDA-MB-231/ATCC (Breast Cancer)) was over 1.00E−4 and the “Mean Optical Densities” value ([13]; log10 concentration −4.0) was 0.482. The “Percent Growth” value ([13]; log10 concentration −4.0) was 11%, the “Mean Optical Densities” value ([13]; log10 concentration −5.0) was 0.529 and the “Percent Growth” value ([13]; log10 concentration −5.0) was 19%. The “Mean Optical Densities” value ([13]; log10 concentration −6.0) was 0.548, the “Percent Growth” value ([13]; log10 concentration −6.0) was 22% and the “Mean Optical Densities” value ([13]; log10 concentration −7.0) was 1.039. The “Percent Growth” value ([13]; log10 concentration −7.0) was 101%, the “Mean Optical Densities” value ([13]; log10 concentration −8.0) was 1.087 and the “Percent Growth” value ([13]; log10 concentration −8.0) was 109%. The TGI ([14]; LOX IMVI (Melanoma)) was 1.46E−5, the “Mean Optical Densities” value ([14]; log10 concentration −4.0) was 0.224 and the “Percent Growth” value ([14]; log10 concentration −4.0) was −19%. For the same molecule, the “Mean Optical Densities” value ([14]; log10 concentration −5.0) was 0.328, the “Percent Growth” value ([14]; log10 concentration −5.0) was 4% and the “Mean Optical Densities” value ([14]; log10 concentration −6.0) was 0.326. The “Percent Growth” value ([14]; log10 concentration −6.0) was 4%, the “Mean Optical Densities” value ([14]; log10 concentration −7.0) was 1.208 and the “Percent Growth” value ([14]; log10 concentration −7.0) was 64%. The “Mean Optical Densities” value ([14]; log10 concentration −8.0) was 1.614, the “Percent Growth” value ([14]; log10 concentration −8.0) was 92% and the GI50 ([15]; MDA-MB-435) was 309 nM. The CC50 ([15]; MDA-MB-435, read-out: LC50) was over 100000 nM, the TGI ([16]; T-47D (Breast Cancer)) was 2.55E−6 and the “Mean Optical Densities” value ([16]; log10 concentration −4.0) was 0.479. For the same molecule, the “Percent Growth” value ([16]; log10 concentration −4.0) was −12%, the “Mean Optical Densities” value ([16]; log10 concentration −5.0) was 0.516 and the “Percent Growth” value ([16]; log10 concentration −5.0) was −5%. For the same molecule, the “Mean Optical Densities” value ([16]; log10 concentration −6.0) was 0.565, the “Percent Growth” value ([16]; log10 concentration −6.0) was 3% and the “Mean Optical Densities” value ([16]; log10 concentration −7.0) was 1.199. The “Percent Growth” value ([16]; log10 concentration −7.0) was 94%, the “Mean Optical Densities” value ([16]; log10 concentration −8.0) was 1.266 and the “Percent Growth” value ([16]; log10 concentration −8.0) was 103%. For the same molecule, the GI50 [17] was 286 nM and the CC50 ([17]; read-out: LC50) was over 100000 nM.
